# Test results reported in patent US20260166021A1, “POLYMORPHIC FORMS OF A SOLUBLE EPOXIDE HYDROLASE INHIBITOR AND FORMULATIONS THEREOF” (EicOsis, LLC, priority 2022, published 2026).
# Marks after values point to notes of the source that are not given here.
# Experiments:
# Assay type in all cases: physicochemical
# [1] = Competitive slurry experiments (solvent-mediated polymorph transformation, XRD); settings: 1 and 7 days
# Experimental: Polymorph stability and interconversions were analyzed with competitive slurry experiments. The competitive slurry (solvent-mediated transformation) experiments were performed on Forms A, B, D, E, F, G, and I generated through scaled-up crystallization (summarized in TABLE 11). […] The suspensions were aliquoted at one day and seven days and filtered to isolate the solids. Remaining solid was analyzed by XRD without drying.
# In FIG. 66, the second spectrum from the top corresponds to Form E. These XRD data confirmed that Patterns C, K, and D were afforded in these solvents.
# In order to further confirm the rank of stability order of the selected forms and extend the temperature range of stability relationship up to 70° C. covering potential API process conditions, binary form slurries were conducted with starting mixtures of (1) Forms A and D, and (2) Forms D and E. The resultant polymorphs were characterized with XRD after 1 and 7 days, the results of which analyses are shown in FIGURE S 67-68 and summarized in TABLE 13. Pattern D stood out from both binary mixture slurries of A & D and of D & E after seven-day stirring at the elevated temperature.
# Additional single form slurry experiments were conducted on Forms A, D, and E in either water or heptane at room temperature. […] In agreement with prior competitive slurry experiments, Form D was stable at room temperature in n-heptane. Pattern E was obtained from slurries starting with Forms A and E in n-heptane. As expected, Form C was formed from the Pattern E slurry in water.
# [2] = Excipient stability analyses (HPLC impurities)
# Experimental: For the excipient stability analyses, approximately 10-20 mg Form D was incubated in PEG400, propylene glycol, D-a-Tocopherol polyethylene glycol 1000 succinate (Vitamin E TPGS), Gelucire® 44/14, hydrogenated castor oil, glyceryl caprylate/caprate(Capmul® MCM), ethoxylated solubilizers (Kolliphor® HS 15, Kolliphor® EL), nonionic surfactant (Labrasol), and diethylene glycol monoethyl ether (Transcutol® HP).
# [3] = Equilibrium-solubility screening in solvents and excipients; settings: for solubility thermodynamic at 24 h: thermodynamic from solid
# Experimental: For these analyses, Form D or Form C was mixed with 0.5 or 1.0 mL of solvents and equilibrated for approximately 24 hours. The mixture was filtered through 0.45 μm centrifuge filters.
# As expected, the compound was not easily ionized at physiologically relevant pH. […] In addition, these excipients included surfactants, co-solvents, and lipids which are amenable for use in self-emulsifying drug delivery systems (SEDDS). The XRD pattern of the starting material was maintained for each sample after equilibrium.
# [4] = 50° C., Castor Oil, hydrogenated
# [5] = Room Temperature, Capmul MCM, EP
# [6] = Room Temperature, Capmul MCM, NF
# [7] = Room Temperature, Castor Oil, hydrogenated*
# [8] = Room Temperature, Gelucire 44/14
# [9] = Room Temperature, Kolliphor HS-15
# [10] = Room Temperature, Propylene glycol
# [11] = Room Temperature, Vitamin E TPGS
# [12] = Capmul MCM, (medium name cut off)
# [13] = Castor Oil, (medium name cut off)
smiles,measurement,setting,value
"CC[C@H](C)C(=O)N1CCC(NC(=O)Nc2ccc(OC(F)(F)F)c(F)c2)CC1 [Form D, (S)-1-(3-fluoro-4-(trifluoromethoxy)phenyl)-3-(1-(2-methylbutanoyl)piperidin-4-yl)urea]",polymorph stability in binary form slurries,"[1]; mixtures A & D and D & E, n-heptane, up to 70° C.",most thermodynamically stable
same,single form slurry in n-heptane: resultant polymorph,"[1]; n-heptane, room temperature",stable
same,polymorph stability in competitive slurry,"[1]; room temperature, water, MTBE or n-heptane, listed as Pattern D",most stable form
same,"Impurity, % (Day 1)","[2]; 50° C., Capmul MCM, EP",None
same,"Impurity, % (Day 3)","[2]; 50° C., Capmul MCM, EP",None
same,"Impurity, % (Day 1)","[2]; 50° C., Capmul MCM, NF",None
same,"Impurity, % (Day 3)","[2]; 50° C., Capmul MCM, NF",None
same,"Impurity, % (Day 1)",[2]; [4],None
same,"Impurity, % (Day 3)",[2]; [4],None
same,"Impurity, % (Day 1)","[2]; 50° C., Gelucire 44/14",None
same,"Impurity, % (Day 3)","[2]; 50° C., Gelucire 44/14",None
same,"Impurity, % (Day 1)","[2]; 50° C., Kolliphor EL",None
same,"Impurity, % (Day 3)","[2]; 50° C., Kolliphor EL",None
same,"Impurity, % (Day 1)","[2]; 50° C., Kolliphor HS-15",None
same,"Impurity, % (Day 3)","[2]; 50° C., Kolliphor HS-15",None
same,"Impurity, % (Day 1)","[2]; 50° C., Labrasol",None
same,"Impurity, % (Day 3)","[2]; 50° C., Labrasol",None
same,"Impurity, % (Day 1)","[2]; 50° C., PEG 400",None
same,"Impurity, % (Day 1)","[2]; 50° C., Propylene glycol",None
same,"Impurity, % (Day 3)","[2]; 50° C., Propylene glycol",None
same,"Impurity, % (Day 1)","[2]; 50° C., Transcutol",None
same,"Impurity, % (Day 3)","[2]; 50° C., Transcutol",None
same,"Impurity, % (Day 1)","[2]; 50° C., Vitamin E TPGS",None
same,"Impurity, % (Day 3)","[2]; 50° C., Vitamin E TPGS",None
same,impurities after incubation in excipients,"[2]; PEG400, propylene glycol, Vitamin E TPGS, Gelucire 44/14, hydrogenated castor oil, Capmul MCM, Kolliphor HS 15, Kolliphor EL, Labrasol, Transcutol HP, 4 or 7 days, room temperature or 50° C., HPLC",No impurities were observed
same,"Impurity, % (Day 1)",[2]; [5],None
same,"Impurity, % (Day 3)",[2]; [5],None
same,"Impurity, % (Day 1)",[2]; [6],None
same,"Impurity, % (Day 3)",[2]; [6],None
same,"Impurity, % (Day 1)",[2]; [7],None
same,"Impurity, % (Day 3)",[2]; [7],None
same,"Impurity, % (Day 1)",[2]; [8],None
same,"Impurity, % (Day 3)",[2]; [8],None
same,"Impurity, % (Day 1)","[2]; Room Temperature, Kolliphor EL",None
same,"Impurity, % (Day 3)","[2]; Room Temperature, Kolliphor EL",None
same,"Impurity, % (Day 1)",[2]; [9],None
same,"Impurity, % (Day 3)",[2]; [9],None
same,"Impurity, % (Day 1)","[2]; Room Temperature, Labrasol",None
same,"Impurity, % (Day 3)","[2]; Room Temperature, Labrasol",None
same,"Impurity, % (Day 1)","[2]; Room Temperature, PEG 400",None
same,"Impurity, % (Day 1)",[2]; [10],None
same,"Impurity, % (Day 3)",[2]; [10],None
same,"Impurity, % (Day 1)","[2]; Room Temperature, Transcutol",None
same,"Impurity, % (Day 3)","[2]; Room Temperature, Transcutol",None
same,"Impurity, % (Day 1)",[2]; [11],None
same,"Impurity, % (Day 3)",[2]; [11],None
same,Equilibrium Solubility,[3]; Campul MCM,56.2 mg/mL
same,XRD Pattern At Equilibrium,[3]; Campul MCM,Form D
same,XRD Pattern At Equilibrium,[3]; Canola Oil,Form D
same,solubility thermodynamic at 24 h,"[3]; Canola Oil, oil or lipid",< 100 µg/mL
same,Equilibrium Solubility,[3]; [12],24.5 mg/mL
same,XRD Pattern At Equilibrium,[3]; [12],Form D
same,Equilibrium Solubility,[3]; Captex 355,2.0 mg/mL
same,XRD Pattern At Equilibrium,[3]; Captex 355,Form D
same,Equilibrium Solubility,[3]; Castor Oil,5.5 mg/mL
same,XRD Pattern At Equilibrium,[3]; Castor Oil,Form D
same,Equilibrium Solubility,[3]; [13],42.6** mg/mL
same,XRD Pattern At Equilibrium,[3]; [13],Form D
same,XRD Pattern At Equilibrium,[3]; Corn Oil,Form D
same,solubility thermodynamic at 24 h,"[3]; Corn Oil, oil or lipid",< 100 µg/mL
same,XRD Pattern At Equilibrium,[3]; DI water,Form C (minor
same,"XRD Pattern At Equilibrium, minor form",[3]; DI water,Form D)
same,solubility thermodynamic at 24 h,"[3]; DI water, water, approximately 24 hours",< 100 µg/mL
same,Equilibrium Solubility,[3]; FaSSIF,0.2 mg/mL
same,XRD Pattern At Equilibrium,[3]; FaSSIF,Form D
same,solubility thermodynamic at 24 h,[3]; FaSSIF,< 100 µg/mL
same,Equilibrium Solubility,[3]; Gelucire 44/14,37.7** mg/mL
same,XRD Pattern At Equilibrium,[3]; Gelucire 44/14,Form D
same,XRD Pattern At Equilibrium,[3]; Glycerol,Form D
same,solubility thermodynamic at 24 h,"[3]; Glycerol, organic solvent or mixture",< 100 µg/mL
same,Equilibrium Solubility,[3]; Intralipid,0.1 mg/mL
same,XRD Pattern At Equilibrium,[3]; Intralipid,Form D
same,Equilibrium Solubility,[3]; Kolliphor,1.4 mg/mL
same,XRD Pattern At Equilibrium,[3]; Kolliphor,Form D
